Test results taken from PubChem BioAssay (NCI).
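All cell lines were grown in 96-well plates and treated with compound for 48 hours. The concentration for full growth arrest is given as TGI.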

Experiments:
Experiment in all cases: NCI-60 cell line screen, 48 h
CAKI-1 renal = tested on: CAKI-1 renal
HT29 colon = tested on: HT29 colon
MOLT-4 leukemia = tested on: MOLT-4 leukemia
NCI-H23 lung = tested on: NCI-H23 lung
OVCAR-8 ovarian = tested on: OVCAR-8 ovarian
SN12C renal = tested on: SN12C renal
UO-31 renal = tested on: UO-31 renal
A498 renal = tested on: A498 renal
HOP-62 NSCLC = tested on: HOP-62 NSCLC

Row | SMILES | TGI (CAKI-1 renal) | TGI (HT29 colon) | TGI (MOLT-4 leukemia) | TGI (NCI-H23 lung) | TGI (OVCAR-8 ovarian) | TGI (SN12C renal) | TGI (UO-31 renal) | TGI (A498 renal) | TGI (HOP-62 NSCLC)
1 | CCCN(CCC)c1c([N+](=O)[O-])cc(C(=O)N(CCO)CCO)cc1[N+](=O)[O-] | > 100 µM | > 100 µM | > 100 µM | > 100 µM | > 100 µM | > 100 µM | > 100 µM |  | 
2 | S=C=NCCc1ccccc1 |  | 0.554 µM |  | 1.31 µM | 5.57 µM | 0.987 µM | 3.94 µM | 2 µM | 1.35 µM
3 | CC(C)(C)OC(=O)c1cccnc1/C=N/O | > 100 µM | > 100 µM | > 100 µM | > 100 µM | > 100 µM | > 100 µM | > 100 µM |  | > 100 µM
4 | COC1OC(C)C2OC(C)(C)OC2C1OC(C)=O (stereo not drawn) | > 100 µM | > 100 µM | > 100 µM | > 100 µM | > 100 µM | > 100 µM |  | > 100 µM | > 100 µM
5 | O=c1[nH]c(=O)n(C2OC(CO)C(O)C2O)cc1OCC(F)(F)F (stereo not drawn) | > 100 µM | > 100 µM | > 100 µM | > 100 µM | > 100 µM | > 100 µM | > 100 µM | > 100 µM | > 100 µM
6 | COc1ccc(C(=O)N/N=C/c2c(C)n(C)n(-c3ccccc3)c2=O)cc1 |  | > 100 µM | > 100 µM | > 100 µM | > 100 µM | > 100 µM | > 100 µM | > 100 µM | > 100 µM
7 | COC(=O)/C=c1\s/c(=C\C(=O)OC)c2ccccc12 | > 100 µM | > 100 µM | > 100 µM | > 100 µM | > 100 µM | > 100 µM | > 100 µM | > 100 µM | 
8 | C#CCN(C(=O)C(F)(F)F)c1ccc(C(=O)c2ccc(N(CC#C)C(=O)C(F)(F)F)cc2)cc1 |  | 45.4 µM | 64.9 µM | 71.6 µM | > 100 µM | > 100 µM | > 100 µM |  | > 100 µM
9 | CCCCCCCCCCCCCC(=O)CSCCNC(=O)CCNC(=O)[C@@H](O)C(C)(C)COP(=O)(O)OP(=O)(O)OCC1OC(n2cnc3c(N)ncnc32)C(O)C1OP(=O)(O)O (stereo partly drawn) |  | 45.3 µM |  | 42 µM | 83.5 µM | 34.5 µM | 27.6 µM | 35.5 µM | 32.6 µM
10 | C/C=C/COC(=O)CO[N+](=O)[O-] | > 100 µM | > 100 µM | > 100 µM | > 100 µM | > 100 µM | > 100 µM | > 100 µM |  | > 100 µM
11 | CCN(CC)CCn1[nH]c2c3ccc(=O)cc3sc3c(NCCN)ccc1c32 | 11.5 µM | 6.2 µM | 0.383 µM |  | 12.7 µM | 8.15 µM | 52.1 µM | 3.32 µM | 2.3 µM
12 | O=c1[nH]c(=O)n(C2CC(O)C(CO)O2)cc1C#Cc1ccc(F)cc1 (stereo not drawn) | > 100 µM | > 100 µM | > 100 µM | > 100 µM | > 100 µM | > 100 µM | > 100 µM |  | > 100 µM
